Patent US20230293517A1, “ANTAGONIST COMPOUNDS” (AdoRx Therapeutics Limited, priority 2020, published 2023)

Assays:
[1] = target: human Adenosine A1 receptor (Homo sapiens (Human), UniProt P30542); assay: Adenosine receptor TR-FRET binding assay (A1); conditions: inhibition of binding of 100 nM CA200645, CHO cell membranes
Outline: (§1)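 TR-FRET displacement of fluorescent XAC (CA200645; 30 nM for A2b, 100 nM for A1/A2a/A3) from terbium-labelled human receptors in CHO membranes, 2 h at room temperature with saponin, 1% DMSO. Non-specific binding with 10 μM XAC; 665/620 nm ratio; Ki from IC50 by Cheng–Prusoff.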

[2] = test system: CD8+T cells in human whole blood; assay: Measurement of pCREB in CD8+T cells in human whole blood; format: cell-based; conditions: 3 μM NECA, rolipram
Outline: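 Heparinised human whole blood pre-incubated 20 min at 37 °C with serially diluted A2a antagonists plus rolipram, then stimulated 60 min with 3 μM NECA (final). After fixation and red-cell lysis, white cells were permeabilized and stained for phospho-CREB and CD8; pCREB in CD8+ T cells measured by flow cytometry.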

[3] = target: human Adenosine A3 receptor (Homo sapiens (Human), UniProt P0DMS8); assay: Adenosine receptor TR-FRET binding assay (A3); conditions: inhibition of binding of 100 nM CA200645, CHO cell membranes
Sequence of human Adenosine A3 receptor (P0DMS8 whole entry): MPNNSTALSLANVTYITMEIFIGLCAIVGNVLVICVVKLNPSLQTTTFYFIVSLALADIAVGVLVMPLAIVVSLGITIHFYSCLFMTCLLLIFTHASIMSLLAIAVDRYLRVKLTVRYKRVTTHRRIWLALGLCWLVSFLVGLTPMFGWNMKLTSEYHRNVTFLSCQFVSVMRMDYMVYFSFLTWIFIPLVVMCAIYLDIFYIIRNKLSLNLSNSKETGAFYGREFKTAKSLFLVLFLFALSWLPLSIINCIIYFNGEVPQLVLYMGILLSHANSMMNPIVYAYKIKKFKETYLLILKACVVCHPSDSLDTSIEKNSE
Outline: as §1

human PBMCs = assay: CD3/CD28 stimulated IL-2 release NECA reversal assay in human PBMCs; format: cell-based; conditions: PBMC, 1 uM NECA, 24 hours, IL-2 in culture supernatant
Outline: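 PBMCs from citrated healthy-donor blood plated at 50,000 cells/well on 1 ug/ml CD3 antibody with 1 ug/ml CD28 antibody, 1 uM NECA and 0.003-10 μM antagonist (final), 24 h at 37° C. Supernatant IL-2 measured by MSD immunoassay; % inhibition set against no-NECA control wells as 100%.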

[4] = target: human Adenosine A2a receptor (Homo sapiens (Human), UniProt P29274); assay: Adenosine receptor TR-FRET binding assay (A2a); conditions: inhibition of binding of 100 nM CA200645, CHO cell membranes
Sequence of human Adenosine A2a receptor (P29274 whole entry): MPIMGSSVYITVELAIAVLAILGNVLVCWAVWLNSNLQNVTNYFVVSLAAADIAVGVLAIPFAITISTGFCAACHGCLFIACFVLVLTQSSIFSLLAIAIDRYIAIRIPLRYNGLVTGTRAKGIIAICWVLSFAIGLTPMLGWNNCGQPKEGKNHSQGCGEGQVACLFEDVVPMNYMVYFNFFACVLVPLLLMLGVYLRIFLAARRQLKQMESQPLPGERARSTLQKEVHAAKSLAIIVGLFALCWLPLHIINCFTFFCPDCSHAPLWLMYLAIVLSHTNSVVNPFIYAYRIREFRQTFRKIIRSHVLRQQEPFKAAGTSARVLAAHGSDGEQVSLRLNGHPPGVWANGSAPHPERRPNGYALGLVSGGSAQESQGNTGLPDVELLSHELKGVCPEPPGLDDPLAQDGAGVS
Outline: as §1

[5] = target: human Adenosine A2b receptor (Homo sapiens (Human), UniProt P29275); assay: Adenosine receptor TR-FRET binding assay (A2b); conditions: TR-FRET, inhibition of binding of 30 nM CA200645, CHO cell membranes
Sequence of human Adenosine A2b receptor (P29275 whole entry): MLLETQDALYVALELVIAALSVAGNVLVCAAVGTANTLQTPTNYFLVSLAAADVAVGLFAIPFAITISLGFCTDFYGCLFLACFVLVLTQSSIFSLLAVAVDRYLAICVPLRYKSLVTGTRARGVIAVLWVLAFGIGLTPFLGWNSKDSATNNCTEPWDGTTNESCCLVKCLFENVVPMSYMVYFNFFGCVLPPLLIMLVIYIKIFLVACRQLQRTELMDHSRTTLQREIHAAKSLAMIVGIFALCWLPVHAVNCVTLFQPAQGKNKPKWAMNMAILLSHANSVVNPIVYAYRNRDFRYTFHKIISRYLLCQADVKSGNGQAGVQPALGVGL
Outline: as §1

Sequence of human Adenosine A1 receptor (P30542 whole entry): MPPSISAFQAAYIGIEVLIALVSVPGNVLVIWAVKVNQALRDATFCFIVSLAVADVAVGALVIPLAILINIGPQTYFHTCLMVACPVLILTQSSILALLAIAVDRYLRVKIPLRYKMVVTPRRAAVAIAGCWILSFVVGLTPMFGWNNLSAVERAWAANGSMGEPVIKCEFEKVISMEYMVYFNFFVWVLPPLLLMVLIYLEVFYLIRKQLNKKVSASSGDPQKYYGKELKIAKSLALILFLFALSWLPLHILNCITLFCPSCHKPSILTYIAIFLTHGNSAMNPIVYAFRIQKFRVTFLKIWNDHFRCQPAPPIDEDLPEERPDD

| Ki [1] [µM] | IC50 [2] [µM] | Ki [3] [µM] | Ki [4] [µM] | Ki [5] [µM] | Compound | IC50 (human PBMCs) [µM] |
| --- | --- | --- | --- | --- | --- | --- |
| 0.104 | 0.31 | 0.183 | 0.00044 | 0.002 | Cc1cc(-c2sc(NC(=O)N3CCC4(CCC(=O)N4)CC3)nc2-c2cccc(C#N)c2)cc(C)n1 [Example 6.45, N-[4-(3-Cyanophenyl)-5-(2,6-dimethyl-4-pyridyl)thiazol-2-yl]-2-oxo-1,8-diazaspiro[4.5]decane-8-carboxamide] | 0.0094 |
| 0.096 | 0.14 | 0.245 | 0.00111 | 0.0017 | Cc1cc(-c2sc(NC(=O)N3CC[C@H](C(C)(C)O)C3)nc2-c2cccc(C#N)c2)cc(C)n1 [Example 6.48, (3S)-N-[4-(3-Cyanophenyl)-5-(2,6-dimethyl-4-pyridyl)thiazol-2-yl]-3-(1-hydroxy-1-methyl-ethyl)pyrrolidine-1-carboxamide] | 0.0037 |
| 0.136 | 0.19 | 0.472 | 0.00163 | 0.0034 | Cc1cc(-c2sc(NC(=O)N3CCC4(CCOC(=O)N4)CC3)nc2-c2cccc(C#N)c2)cc(C)n1 [Example 6.50, N-[4-(3-Cyanophenyl)-5-(2,6-dimethyl-4-pyridyl)thiazol-2-yl]-2-oxo-3-oxa-1,9-diazaspiro[5.5]undecane-9-carboxamide] | 0.0036 |
| 0.128 | 0.1 | 0.184 | 0.00147 | 0.0022 | Cc1cc(-c2sc(NC(=O)N3CC4(CCNC4=O)C3)nc2-c2cccc(C#N)c2)cc(C)n1 [Example 6.59, N-[4-(3-Cyanophenyl)-5-(2,6-dimethyl-4-pyridyl)thiazol-2-yl]-5-oxo-2,6-diazaspiro[3.4]octane-2-carboxamide] | 0.0059 |
| 0.112 | 0.35 | 0.057 | 0.00152 | 0.0032 | Cc1cc(-c2sc(NC(=O)N3CCN(C4COC4)CC3)nc2-c2cccc(C#N)c2)cc(C(F)(F)F)n1 [Example 6.61, N-[4-(3-Cyanophenyl)-5-[2-methyl-6-(trifluoromethyl)-4-pyridyl]thiazol-2-yl]-4-(oxetan-3-yl)piperazine-1-carboxamide] | 0.0172 |
| 0.027 | 0.01 | 0.235 | 0.00014 | 0.0014 | Cc1cc(-c2sc(NC(=O)N3CC(C#N)(CO)C3)nc2-c2cccc(C#N)c2)cc(C)n1 [Example 6.64, 3-Cyano-N-[4-(3-cyanophenyl)-5-(2,6-dimethyl-4-pyridyl)thiazol-2-yl]-3-(hydroxymethyl)azetidine-1-carboxamide] | 0.0011 |
| 0.099 | 0.18 | 0.361 | 0.00081 | 0.0048 | Cc1cc(-c2sc(NC(=O)N3CCN[C@H](C(C)(C)O)C3)nc2-c2cccc(C#N)c2)cc(C)n1 [Example 6.75, (3S)-N-[4-(3-Cyanophenyl)-5-(2,6-dimethyl-4-pyridyl)thiazol-2-yl]-3-(1-hydroxy-1-methyl-ethyl)piperazine-1-carboxamide] | 0.0059 |
| 0.065 | 0.48 | 0.385 | 0.0019 | 0.008 | Cc1cc(-c2sc(NC(=O)N3CCOC[C@H]3CO)nc2-c2cccc(C#N)c2)cc(C)n1 [Example 6.88, (3R)-N-[4-(3-Cyanophenyl)-5-(2,6-dimethyl-4-pyridyl)thiazol-2-yl]-3-(hydroxymethyl)morpholine-4-carboxamide] | 0.0078 |
| 0.407 | 0.19 | 0.719 | 0.00563 | 0.0113 | Cc1cc(-c2sc(NC(=O)N3CCC4(CCC(=O)N4C)CC3)nc2-c2cccc(C#N)c2)cc(C)n1 [Example 6.94, N-[4-(3-Cyanophenyl)-5-(2,6-dimethyl-4-pyridyl)thiazol-2-yl]-1-methyl-2-oxo-1,8-diazaspiro[4.5]decane-8-carboxamide] | 0.0105 |
| 0.042 | 0.58 | 0.304 | 0.00281 | 0.0111 | Cc1cc(-c2sc(NC(=O)N3CCNCC3)nc2-c2cccc(C#N)c2)cc(C)n1 [Example 7, N-[4-(3-Cyanophenyl)-5-(2,6-dimethyl-4-pyridyl)thiazol-2-yl]piperazine-1-carboxamide] | 0.016 |
| 0.047 | 0.65 | 0.418 | 0.00099 | 0.0076 | Cc1cc(-c2sc(NC(=O)N3CCN[C@H](C)C3)nc2-c2cccc(C#N)c2)cc(C)n1 [Example 7.1, (3R)—N-[4-(3-Cyanophenyl)-5-(2,6-dimethyl-4-pyridyl)thiazol-2-yl]-3-methyl-piperazine-1-carboxamide] | 0.0205 |
| 0.102 | 0.02 | 0.772 | 0.00079 | 0.0053 | Cc1cc(-c2sc(NC(=O)N3CC[C@@H](C(C)(C)O)C3)nc2-c2cccc(C#N)c2)cc(CO)n1 [Example 9.2] | 0.0027 |
| 0.068 | 0.01 | 0.742 | 0.00042 | 0.0032 | Cc1cc(-c2sc(NC(=O)N3CCC(C#N)(CO)CC3)nc2-c2cccc(C#N)c2)cc(CO)n1 [Example 9.7] | 0.001 |
| 0.048 | 0.02 | 0.491 | 0.00031 | 0.0031 | COC1(C#N)CCN(C(=O)Nc2nc(-c3cccc(C#N)c3)c(-c3cc(C)nc(CO)c3)s2)CC1 [Example 9.9] | 0.0013 |
| 0.043 | 1.06 | 0.283 | 0.00119 | 0.0014 | Cc1cc(-c2sc(NC(=O)N3CC[S+]([O-])CC3)nc2-c2cccc(C#N)c2)c(F)c(C)n1 [Example 10, N-[4-(3-Cyanophenyl)-5-(3-fluoro-2,6-dimethyl-4-pyridyl)thiazol-2-yl]-1-oxo-1,4-thiazinane-4-carboxamide] | 0.0247 |
| 0.051 | 1.13 | 0.515 | 0.00062 | 0.0013 | Cc1cc(-c2sc(NC(=O)N3CCS(=O)(=NC#N)CC3)nc2-c2cccc(C#N)c2)cc(C)n1 [Example 11, 1-Cyanoimino-N-[4-(3-cyanophenyl)-5-(2,6-dimethyl-4-pyridyl)thiazol-2-yl]-1-oxo-1,4-thiazinane-4-carboxamide] | 0.0105 |
| 0.022 | 0.12 | 0.257 | 0.00029 | 0.0022 | Cc1cc(-c2sc(NC(=O)N3CCS(=N)(=O)CC3)nc2-c2cccc(C#N)c2)cc(C(F)F)n1 [Example 16.1] | 0.0067 |
| 0.248 | 0.41 | 0.852 | 0.00039 | 0.0034 | Cc1cc(-c2sc(NC(=O)N3CCC(C)(C#N)CC3)nc2-c2cccc(C#N)c2C)cc(C)n1 [Example 18, 4-Cyano-N-[4-(3-cyano-2-methyl-phenyl)-5-(2,6-dimethyl-4-pyridyl)thiazol-2-yl]-4-methyl-piperidine-1-carboxamide] | 0.0072 |
